Here are results for eight compounds from publication PMC5705213, “Immunoproteasome functions explained by divergence in cleavage specificity and regulation” (eLife, 2017).

In one test the test system is primary human PBMCs. Description: Cellular proteasome inhibition and recovery assay, PBMCs. The class given is cell-based. As to conditions: primary human PBMCs from healthy donors, one-hour pulse, 24 hr. The method, then:
(§1) SUP-B15 and MOLT-4 cells were seeded at 2 × 10^6/mL in RPMI media containing 10% FBS 24 hr prior to inhibition assays; PBMC vials were thawed and seeded at 4.4 × 10^6/mL in RPMI media with 10% FBS 3 hr prior to inhibition assays. Cells were diluted 2-fold with serum-free RPMI media containing 2X inhibitor or vehicle control (0.5% DMSO and 5% FBS final). Inhibitor treatments were carried out for 1 hr at 37°C, and to remove unbound inhibitor, cells were immediately washed three times (SUP-B15 and PBMCs) or six times (MOLT-4) with D-PBS for 1 hr time points or RPMI media containing 5% FBS for subsequent time points. Cells were incubated at 37°C for the duration of the time course and washed two times in D-PBS to remove serum upon harvest. The cell pellets were flash-frozen in liquid N2 prior to storage at −80°C.
(§2) Cell pellets were thawed and incubated for 30 min on ice in non-denaturing lysis buffer (20 mM Tris, pH 8.0, 5 mM EDTA) or RIPA buffer that contained cOmplete^TM EDTA-free inhibitor cocktail (Roche, Pleasanton, CA). Total protein concentration in supernatants was determined using a Bradford Protein Assay Kit (Thermo Scientific Pierce) or BCA Protein Assay Kit (Cell Signaling Technology), respectively, with BSA as the protein standard. Lysate activity assays were performed following 2-fold dilution of 0.1–0.4 mg/mL lysate into assay buffer as described above. […]

Test [1] concerns rheumatoid arthritis mouse model. Set-up: method as in Muchamuel et al., 2009. As to conditions: at a significantly lower dose than bortezomib or CFZ; ref Muchamuel et al., 2009; cited from earlier work.
For test [2], the system named is SUP-B15 cell line. Description: Cellular proteasome inhibition and recovery assay, SUP-B15. The class given is cell-based, human. As to conditions: SUP-B15, one-hour pulse, 24 hr time course. How it is done: as §1, §2
The subject of another test is LMP7 / β5. Description: MOLT-4 lysate proteasome activity assay, IC50, LLVY-AMC substrate. The settings on record: 1 hr pre-incubation, 30 μM Suc-LLVY-AMC, read-out: IC50, detection method LLVY-AMC, subunit LMP7 / β5. The class given is biochemical, human. How it is done: Three lysates containing varied proteasome ratios (whole blood, PBMCs, and the MOLT-4 cell line) were assayed in the absence or presence of proteasome inhibitors as described above. Lysates were generated by washing cells in PBS and lysing the resulting cell pellet in a two-fold greater volume of cold lysis buffer (20 mM Tris, pH 8.0, 5 mM EDTA). Total protein concentration was determined using the BCA Protein Assay Kit (Thermo Scientific Pierce) with bovine serum albumin (BSA) as the protein standard. […] Activity assays were carried out over 1 hr following two-fold sample dilution in the same assay buffer containing final concentrations of 10 μM NH2-EWFW-ACC, 30 μM iso-VQA-ACC, or 30 μM Suc-LLVY-AMC. Activity measurements were recorded on the BioTek plate reader described above in 384-well plates using either λex = 380 nm and λem = 460 nm (gain = 85) for the ACC substrates or λex = 345 nm and λem = 445 nm (gain = 85) for the AMC substrate.

For test [3], the system named is SUP-B15 cell line. As to the kind of experiment: Ubiquitin western blot after one-hour inhibitor pulse treatment. The settings on record: ONX 0914 200 nM or PR-825 100 or 125 nM. The class given is cell-based, human. The method, then: as §1, §2
On the technique in general: Immunoblotting shows a protein as a band on a membrane.

A further test has as its system Nrf1. As to the kind of experiment: Nrf1 western blot after ONX 0914 pulse treatment. Format: cell-based, human. As to conditions: RIPA lysates from the cell lines and PBMCs. The method, then:
as §1, §2

The next test has as its system PSMB8 (LMP7) mRNA. As to the kind of experiment: qRT-PCR of PSMB8 (LMP7) mRNA after ONX 0914 pulse treatment. Format: cell-based, human. The settings on record: SUP-B15, MOLT-4 and PBMCs after one-hour pulse, normalized to GAPDH. The method, then: as §1
Total RNA was extracted from cells using the RNeasy Plus Mini kit (Qiagen, Germantown, MD). The quantity and quality of RNA was confirmed by absorption measurements at 260 and 280 nm. […] Efficiencies for each primer/probe set were calculated from a serial dilution of Human Reference Total RNA (Agilent) and were >95%. Relative quantification of gene expression was calculated with the comparative cycle threshold method, normalizing for GAPDH expression levels.
(In general: Real-time PCR tracks product formation cycle by cycle.)

For test [4], the target named is T1, human immunoproteasome core particle (i20S) (Homo sapiens, UniProt P20618+P28062).
T1 construct: purchased Boston Biochem E-370
As to the kind of experiment: Purified proteasome activity assay with fluorogenic substrates, SDS-activated i20S. The class given is biochemical. How it is done: Non-prime-side substrate specificity profiling was performed with a complete, diverse library of 160,000 fluorogenic substrates containing the general structure acetyl-P4-P3-P2-P1-(7-amino-4-carbamoylmethylcourmarin, ACC) ([Harris et al., 2000]). For each sub-library, 10 nM human i20S or c20S underwent SDS pre-activation for 1 hr at room temperature in assay buffer (20 mM Tris, pH 8.0, 0.5 mM EDTA) containing 0.03% SDS. […] Activity assays were carried out over 1 hr following two-fold sample dilution in the same 0.03% SDS-containing buffer that also contained a 250 μM final concentration of PS-SCL substrate pool. Activity was recorded in black 96-well round bottom plates (Costar, COrning, NY) using a BioTek Synergy H4 Hybrid Multi-Mode Microplate Reader set to λex = 380 nm and λem = 460 nm (gain = 63). Initial velocity in relative fluorescence units per second (RFU/s) was calculated using a linear fit of the progress curves with Gen5 software v.2.03.
Activity assays with individual fluorogenic substrates were carried out as described above for the PS-SCL assays using final concentrations of 5 nM SDS-activated i20S or c20S and 10 μM substrate except where noted below. The commercial substrates Suc-LLVY-AMC, Ac-WLA-AMC (Boston Biochem, S-330), and Ac-ANW-AMC (Boston Biochem, S-320) were used as supplied. To convert cleaved substrate RFU to free AMC or ACC dye concentration, calibration curves were prepared through total enzymatic hydrolysis of ACC- or AMC-containing peptides that had been quantified through amino acid analysis (Alphalyse, Inc.). Substrate selectivity of PA28α- and SDS-activated 20S proteasomes was compared following 1 hr pre-incubation at room temperature either in the presence of 0.03% SDS or with 12 molar equivalents of PA28α activator in the absence of SDS. For substrate selectivity assays with mixed, purified proteasomes, i20S and c20S underwent individual SDS pre-activation prior to assaying with 5 nM final concentration of pooled 20S. Proteasome ratio assays were performed with 10 μM EWFW-ACC, 30 μM iso-VQA-ACC, and 30 μM Suc-LLVY-AMC. All activity measurements were recorded on the BioTek plate reader described above using λex = 380 nm and λem = 460 nm (gain = 63) for ACC substrates and Suc-LLVY-AMC; 345 nm and λem = 445 nm (gain = 63) for Ac-WLA-AMC and Ac-ANW-AMC; and λex = 328 nm and λem = 393 nm (gain = 75) for the GEWHWPS IQ substrate. Michaelis-Menten calculations were performed using a non-linear fit in Prism v.6.0.

A further test addresses T2, β5 (Homo sapiens, UniProt P20618+P28074).
T2 construct: For IC50 measurements with the MOLT-4 lysate; endogenous in cells; host or cells: MOLT-4 lysate
Description: MOLT-4 lysate proteasome activity assay, IC50, iso-VQA-ACC substrate. The class given is biochemical. The settings on record: commercial β5 substrate. How it is done: Three lysates containing varied proteasome ratios (whole blood, PBMCs, and the MOLT-4 cell line) were assayed in the absence or presence of proteasome inhibitors as described above. Lysates were generated by washing cells in PBS and lysing the resulting cell pellet in a two-fold greater volume of cold lysis buffer (20 mM Tris, pH 8.0, 5 mM EDTA). Total protein concentration was determined using the BCA Protein Assay Kit (Thermo Scientific Pierce) with bovine serum albumin (BSA) as the protein standard.

The mark [5] stands for this setting: iP over cP, Michaelis-Menten analysis.

*1 amine or outer side, *2 acyl side, *3 side chain or, on linkers, in order; H or OH if unused. Where a SMILES comes first, the peptide text is derived from it. The star is where a group is joined. ACC = NC(=O)Cc1cc(=O)oc2cc(N*)ccc12; AMC = Cc1cc(=O)oc2cc(N*)ccc12; Suc = O=C(CCC(=O)[*:2])[*:1]

With `COc1ccc(C[C@H](NC(=O)[C@H](C)NC(=O)CN2CCOCC2)C(=O)N[C@@H](Cc2ccccc2)C(=O)[C@]2(C)CO2)cc1` [ONX 0914], the “recovery of LMP7 activity after irreversible inhibition” value with primary human PBMCs is reported as “confirmed in primary human PBMCs”; in the test on SUP-B15 cell line [2], “rapid recovery”. The disease progression result in test [1] is reported as “attenuate disease progression”. Also, in the test on LMP7 / β5, the IC50 came out at 256 nM. Moreover, in the test with SUP-B15 cell line [3], the “global ubiquitinated protein level (immunoblot)” value is recorded as “global accumulation of ubiquitinated protein”. Also, the “processed Nrf1 (p110) level (western blot)” value in the test on Nrf1 is listed as “accumulation of processed Nrf1 (p110)”. For the same compound, the “PSMB8 mRNA level” value in the test on PSMB8 (LMP7) mRNA is “increased PSMB8 mRNA levels”.

For `NC(=O)Cc1cc(=O)oc2cc(NC(=O)[C@H](Cc3c[nH]c4ccccc34)NC(=O)[C@H](Cc3c[nH]cn3)NC(=O)[C@H](Cc3c[nH]c4ccccc34)NC(=O)[C@@H](N)CCC(=O)O)ccc12` [EWHW-ACC] (H-EWHW-{ACC}), in [4], the “Ratio Vmax (i20S/c20S)” value was found to be 6.0 and the “Ratio kcat/Km (i20S/c20S)” value was 8.4. Also, the iP selectivity in test [4] (iP over cP, 10 μM substrate concentration) worked out at 4.5 fold. In addition, in test [4] (setting [5]), the “selectivity at Vmax” value stood at 6 fold.

As for `Cc1cc(=O)oc2cc(NC(=O)[C@H](Cc3ccc(O)cc3)NC(=O)[C@@H](NC(=O)[C@H](CC(C)C)NC(=O)[C@H](CC(C)C)NC(=O)CCC(=O)O)C(C)C)ccc12` [LLVY-AMC] (Suc-LLVY-{AMC}), the “selectivity at Vmax” value in [4] (iP and cP, direction not given) came out at 2.0 fold. In addition, the “ability to distinguish iP and cP in defined mixtures of each proteasome” value in test [4] (mixed ratios of purified proteasomes, 30 μM substrate) was “unable to distinguish between the two proteasomes”.

As for Ac-Trp-Leu-Ala-{AMC}, the “detection of β5 activity in MOLT-4 lysate” value on β5 is reported as “unable to specifically detect proteasome activity”.

On to `CC(C)C[C@H](NC(=O)[C@H](CCc1ccccc1)NC(=O)CN1CCOCC1)C(=O)N[C@@H](Cc1ccccc1)C(=O)N[C@@H](CC(C)C)C(=O)[C@@]1(C)CO1` [CFZ, carfilzomib], for which, in the test on LMP7 / β5, the IC50 is 53 nM.

Consider `NC(=O)Cc1cc(=O)oc2cc(NC(=O)[C@H](Cc3c[nH]c4ccccc34)NC(=O)[C@H](Cc3ccccc3)NC(=O)[C@H](Cc3c[nH]c4ccccc34)NC(=O)[C@@H](N)CCC(=O)O)ccc12` [EWFW-ACC] (H-EWFW-{ACC}), for which the “improvement in Km for the iP” value in test [4] (compared to the parent substrate EWHW-ACC) turned out to be 7 fold. Moreover, in [4], the “Ratio Vmax (i20S/c20S)” value was found to be 16 and the “Ratio kcat/Km (i20S/c20S)” value turned out to be 4.0. Further, in [4] (setting [5]), the “selectivity at Vmax” value was 16 fold.

On to `Cc1cc(C(=O)N[C@H](C(=O)N[C@@H](CCC(N)=O)C(=O)N[C@@H](C)C(=O)Nc2ccc3c(CC(N)=O)cc(=O)oc3c2)C(C)C)no1` [iso-VQA-ACC], for which, in test [4], the “Ratio Vmax (i20S/c20S)” value is listed as 0.28 and the “Ratio kcat/Km (i20S/c20S)” value is 0.33.

Turning to `CC(=O)N[C@@H](C)C(=O)N[C@@H](CC(N)=O)C(=O)N[C@@H](Cc1c[nH]c2ccccc12)C(=O)Nc1ccc2c(C)cc(=O)oc2c1` [Ac-ANW-AMC] (Ac-Ala-Asn-Trp-{AMC}), in test [4], the “Ratio Vmax (i20S/c20S)” value was 12 and the “Ratio kcat/Km (i20S/c20S)” value was 6.0.
